Results reported in ChEMBL document CHEMBL5614390, “Novel EGFR inhibitors against resistant L858R/T790M/C797S mutant for intervention of non-small cell lung cancer” (Eur J Med Chem, 2024).
Active and inactive are the calls of the source. The calls are words filed in the database; no cut-off is given here.

Experiments:
MCF7 = test: cells; conditions: Homo sapiens, MCF7, 72 h
Description: Cytotoxicity against human MCF7 cells assessed as inhibition of cell proliferation incubated for 72 hrs by CCK8 assay

PC-9 [1] = test: Induction of cell cycle arrest in human PC-9 cells expressing EGFR Del19/T790M/C797S mutant assessed as accumulation of cells at G2/M phase at 1 uM incubated for 24 hrs by PI staining based flow cytometric analysis; assay type: functional
PC-9 [2] = test: Induction of cell cycle arrest in human PC-9 cells expressing EGFR Del19/T790M/C797S mutant assessed as accumulation of cells at G0/G1 phase at low dose incubated for 24 hrs by PI staining based flow cytometric analysis; assay type: functional
[3] = Metabolic stability in Sprague-Dawley rat liver microsomes assessed as intrinsic clearance at 10 uM preincubated for 5 mins followed by NADPH addition and measured upto 60 mins by HPLC analysis; assay type: ADME, Microsome; conditions: time < 65 min, read-out: CLH
PC-9 [4] = test: Induction of apoptosis in human PC-9 cells expressing EGFR Del19/T790M/C797S mutant assessed as early apoptotic cells at 1 uM incubated for 48 hrs by Annexin V-FITC/PI staining based flow cytometric analysis (reference value: 0.050 %); assay type: functional
PC-9 [5] = test: Induction of apoptosis in human PC-9 cells expressing EGFR Del19/T790M/C797S mutant assessed as necrotic cells at 0.1 uM incubated for 48 hrs by Annexin V-FITC/PI staining based flow cytometric analysis (reference value: 0.090 %); assay type: functional
PC-9 [6] = test: Induction of apoptosis in human PC-9 cells expressing EGFR L858R/T790M/C797S mutant assessed as late apoptotic cells at 0.5 uM incubated for 48 hrs by Annexin V-FITC/PI staining based flow cytometric analysis (reference value: 0.360 %); assay type: functional
A-431 = test: cells; conditions: Homo sapiens, A-431, 72 h
Description: Cytotoxicity against human A-431 cells assessed as inhibition of cell proliferation incubated for 72 hrs by CCK8 assay

PC-9 [7] = test: Induction of apoptosis in human PC-9 cells expressing EGFR L858R/T790M/C797S mutant assessed as late apoptotic cells at 0.1 uM incubated for 48 hrs by Annexin V-FITC/PI staining based flow cytometric analysis (reference value: 0.360 %); assay type: functional
[8] = Metabolic stability in mouse liver microsomes assessed as intrinsic clearance at 10 uM preincubated for 5 mins followed by NADPH addition and measured upto 60 mins by HPLC analysis; assay type: ADME, Microsome; conditions: time < 65 min, read-out: CLH
NCI-H1975 = test: cells; conditions: Homo sapiens, NCI-H1975, 72 h
Description: Cytotoxicity against human NCI-H1975 cells expressing EGFR L858R/T790M mutant assessed as inhibition of cell proliferation incubated for 72 hrs by CCK8 assay

[9] = Metabolic stability in Sprague-Dawley rat liver microsomes assessed as half-life at 10 uM preincubated for 5 mins followed by NADPH addition and measured upto 60 mins by HPLC analysis; assay type: ADME, Microsome; conditions: time < 65 min
PC-9 [10] = test: Antitumor activity against human PC-9 cells expressing EGFR L858R/T790M/C797S mutant xenografted in BALB/c nude mouse assessed as tumor growth inhibition at 10 mg/kg, po administered for 18 days relative to control; assay type: functional; conditions: PC-9, 432 h, time 18 day, read-out: TGI
PC-9 [11] = test: Induction of apoptosis in human PC-9 cells expressing EGFR L858R/T790M/C797S mutant assessed as late apoptotic cells at 1 uM incubated for 48 hrs by Annexin V-FITC/PI staining based flow cytometric analysis (reference value: 0.360 %); assay type: functional
PC-9 [12] = test: Induction of apoptosis in human PC-9 cells expressing EGFR Del19/T790M/C797S mutant assessed as late apoptotic cells at 1 uM incubated for 48 hrs by Annexin V-FITC/PI staining based flow cytometric analysis (reference value: 0.040 %); assay type: functional
[13] = Metabolic stability in rabbit liver microsomes assessed as intrinsic clearance at 10 uM preincubated for 5 mins followed by NADPH addition and measured upto 60 mins by HPLC analysis; assay type: ADME, Oryctolagus cuniculus, Microsome; conditions: time < 65 min, read-out: CLH
PC-9 [14] = test: cells; conditions: Homo sapiens, PC-9, 72 h
Description: Cytotoxicity against human PC-9 cells expressing EGFR Del19/T790M/C797S mutant assessed as inhibition of cell proliferation incubated for 72 hrs by CCK8 assay

PC-9 [15] = test: Induction of cell cycle arrest in human PC-9 cells expressing EGFR L858R/T790M/C797S mutant assessed as S phase cells at 0.1 to 1 uM incubated for 24 hrs by PI staining based flow cytometric analysis (reference value: 34.5 +/- 3.3 %); assay type: functional; conditions: dose 0.1-1 µM
PC-9 [16] = test: Induction of apoptosis in human PC-9 cells expressing EGFR Del19/T790M/C797S mutant assessed as late apoptotic cells at 0.5 uM incubated for 48 hrs by Annexin V-FITC/PI staining based flow cytometric analysis (reference value: 0.040 %); assay type: functional
PC-9 [17] = test: Antitumor activity against human PC-9 cells expressing EGFR L858R/T790M/C797S mutant xenografted in BALB/c nude mouse assessed as tumor growth inhibition at 20 mg/kg, po administered for 18 days relative to control; assay type: functional; conditions: PC-9, 432 h, time 18 day, read-out: TGI
PC-9 [18] = test: Induction of apoptosis in human PC-9 cells expressing EGFR L858R/T790M/C797S mutant assessed as early apoptotic cells at 0.1 uM incubated for 48 hrs by Annexin V-FITC/PI staining based flow cytometric analysis (reference value: 0.210 %); assay type: functional
PC-9 [19] = test: Induction of apoptosis in human PC-9 cells expressing EGFR Del19/T790M/C797S mutant assessed as early apoptotic cells at 0.5 uM incubated for 48 hrs by Annexin V-FITC/PI staining based flow cytometric analysis (reference value: 0.050 %); assay type: functional
PC-9 [20] = test: Antitumor activity against human PC-9 cells expressing EGFR L858R/T790M/C797S mutant xenografted in BALB/c nude mouse assessed as tumor growth inhibition at 40 mg/kg, po administered for 18 days relative to control; assay type: functional; conditions: Mus musculus, PC-9, 432 h, time 18 day, read-out: TGI
PC-9 [21] = test: Induction of apoptosis in human PC-9 cells expressing EGFR L858R/T790M/C797S mutant assessed as viable cells at 0.5 uM incubated for 48 hrs by Annexin V-FITC/PI staining based flow cytometric analysis (reference value: 98.9 %); assay type: functional; conditions: read-out: Activity
PC-9 [22] = test: Induction of apoptosis in human PC-9 cells expressing EGFR Del19/T790M/C797S mutant assessed as viable cells at 0.1 uM incubated for 48 hrs by Annexin V-FITC/PI staining based flow cytometric analysis (reference value: 99.8 %); assay type: functional; conditions: read-out: Activity
[23] = Metabolic stability in dog liver microsomes assessed as half-life at 10 uM preincubated for 5 mins followed by NADPH addition and measured upto 60 mins by HPLC analysis; assay type: ADME, Canis lupus familiaris, Microsome; conditions: time < 65 min
PC-9 [24] = test: Induction of cell cycle arrest in human PC-9 cells expressing EGFR L858R/T790M/C797S mutant assessed as accumulation of cells at G0/G1 phase at low dose incubated for 24 hrs by PI staining based flow cytometric analysis; assay type: functional
PC-9 [25] = test: Induction of cell cycle arrest in human PC-9 cells expressing EGFR Del19/T790M/C797S mutant assessed as S phase cells at 0.1 to 1 uM incubated for 24 hrs by PI staining based flow cytometric analysis (reference value: 32.4 +/- 1.1 %); assay type: functional; conditions: dose 0.1-1 µM
PC-9 [26] = test: Induction of apoptosis in human PC-9 cells expressing EGFR L858R/T790M/C797S mutant assessed as necrotic cells at 0.5 uM incubated for 48 hrs by Annexin V-FITC/PI staining based flow cytometric analysis (reference value: 0.540 %); assay type: functional

IC50 (MCF7): 3610 nM
microsomal CLint at 10 µM [3]: 52 µL/min/mg
IC50 (A-431): 1070 nM
microsomal CLint at 10 µM [8]: 56 µL/min/mg
IC50 (NCI-H1975): 106 nM
half-life at 10 µM [9]: 1.48 h
microsomal CLint at 10 µM [13]: 32.7 µL/min/mg
IC50 (PC-9 [14]): 201 nM
half-life at 10 µM [23]: 4.28 h
SMILES: C=CC(=O)Nc1cc(Nc2ncc(F)c(-c3ccc4cc(C(=O)NC)n(C(C)C)c4c3)n2)ccc1N1CCN(C)CC1
Activity (PC-9 [1]): Active
Activity (PC-9 [2]): Active
Activity (PC-9 [4]): 11.6%
Activity (PC-9 [5]): 3.55%
Activity (PC-9 [6]): 6.77%
Activity (PC-9 [7]): 7.25%
inhibition in vivo at 10 mg/kg (PC-9 [10]): 48.7%
Activity (PC-9 [11]): 4.02%
Activity (PC-9 [12]): 8.3%
Activity (PC-9 [15]): 15.9%
Activity (PC-9 [16]): 4.19%
inhibition in vivo at 20 mg/kg (PC-9 [17]): 58.4%
Activity (PC-9 [18]): 2.03%
Activity (PC-9 [19]): 11.8%
inhibition in vivo at 40 mg/kg (PC-9 [20]): 70.6%
viability at 0.5 µM (PC-9 [21]): 61.2%
viability at 0.1 µM (PC-9 [22]): 85.8%
Activity (PC-9 [24]): Active
Activity (PC-9 [25]): 15.6%
Activity (PC-9 [26]): 1.77%
